Here are results for 13 molecules from ChEMBL document CHEMBL1132846, “Synthesis and biological evaluation of highly potent analogues of epothilones B and D” (Bioorg Med Chem Lett, 2000).

The species entered for experiment [1] is Sus scrofa. The experiment is described as follows: Induction of polymerization of porcine brain-derived microtubule protein by 2 uM epothilone B. It is filed as functional.
The subject of a further experiment is KB. Put plainly: Concentration required to inhibit the growth of paclitaxel-resistant human epidermoid carcinoma cells KB-8511 by 50 percent (72 hr exposure). It is filed as functional, cell-based.
Another experiment has as its system KB 3-1. The experiment is described as follows: Concentration required to inhibit the growth of paclitaxel-sensitive human epidermoid carcinoma cells KB-31 by 50 percent (72 hr exposure). It is filed as functional, cell-based. The conditions noted are these: KB 3-1, 72 h.
The species named for experiment [2] is Sus scrofa. Put plainly: Concentrations required to induce 50 percent polymerization of porcine brain-derived micro-tubule protein. The format is functional.

Molecules are shown by their SMILES.

With `C[C@H]1CCC[C@@]2(C)O[C@H]2C[C@@H](c2ccc3c(c2)ncn3C)OC(=O)C[C@H](O)C(C)(C)C(=O)[C@H](C)[C@H]1O`, in the experiment listed under Sus scrofa [1], the Tubulin polymerization is 97%. For the same molecule, the IC50 (usually the point on the concentration scale where inhibition reaches its midpoint) in the experiment with KB turned out to be 0.46 nM; with KB 3-1 it was 0.13 nM.

In turn, `C[C@H]1CCC[C@@]2(C)O[C@H]2C[C@@H](c2ccc3cccnc3c2)OC(=O)C[C@H](O)C(C)(C)C(=O)[C@H](C)[C@H]1O` returned a Tubulin polymerization in the experiment filed under Sus scrofa [1] of 78%. For the same molecule, the IC50 in the experiment with KB came to 0.1 nM; in the experiment on KB 3-1, 0.11 nM.

Regarding `C/C(=C\c1csc(C)n1)[C@@H]1C[C@@H]2O[C@@H]2CCC[C@H](C)[C@H](O)[C@@H](C)C(=O)C(C)(C)[C@@H](O)CC(=O)O1` [EPOTHILONE A], a half-maximal response in the experiment listed under Sus scrofa [2] (EC50) required 1120 nM. In the experiment filed under Sus scrofa [1], the Tubulin polymerization was found to be 69%. Further, the IC50 was 1.91 nM in the experiment on KB and 2.15 nM with KB 3-1.

On to `C/C1=C/C[C@@H](c2ccc3sc(C)nc3c2)OC(=O)C[C@H](O)C(C)(C)C(=O)[C@H](C)[C@@H](O)[C@@H](C)CCC1`, for which the EC50 (commonly the concentration needed to bring the measured effect to its halfway point) in the experiment filed under Sus scrofa [2] was determined as 930 nM. The same molecule showed a Tubulin polymerization in the experiment listed under Sus scrofa [1] of 76%. The values for the IC50 in the experiment on KB and with KB 3-1 were 0.23 nM and 0.45 nM, respectively.

As to `C/C1=C/C[C@@H](c2ccc3cccnc3c2)OC(=O)C[C@H](O)C(C)(C)C(=O)[C@H](C)[C@@H](O)[C@@H](C)CCC1`, in the experiment filed under Sus scrofa [1], the Tubulin polymerization was determined as 90%. Further, the IC50 amounted to 0.38 nM in the experiment with KB and 0.59 nM in the experiment with KB 3-1.

Regarding `Cc1nc2cc([C@@H]3C[C@@H]4O[C@]4(C)CCC[C@H](C)[C@H](O)[C@@H](C)C(=O)C(C)(C)[C@@H](O)CC(=O)O3)ccc2n1C`, in the experiment filed under Sus scrofa [1], the Tubulin polymerization was 99%. For the same molecule, the IC50 worked out at 0.38 nM with KB and 0.14 nM with KB 3-1.

For the molecule `C/C(=C\c1ccccn1)[C@@H]1C[C@@H]2O[C@]2(C)CCC[C@H](C)[C@H](O)[C@@H](C)C(=O)C(C)(C)[C@@H](O)CC(=O)O1`, the IC50 in the experiment with KB and in the experiment on KB 3-1 was 0.3 nM throughout.

Turning to `C/C1=C/C[C@@H](/C(C)=C/c2csc(C)n2)OC(=O)C[C@H](O)C(C)(C)C(=O)[C@H](C)[C@@H](O)[C@@H](C)CCC1` [EPOTHILONE D], in the experiment filed under Sus scrofa [2], the EC50 turned out to be 880 nM. The Tubulin polymerization in the experiment listed under Sus scrofa [1] stood at 83%. The IC50 worked out at 1.44 nM in the experiment with KB and 2.7 nM with KB 3-1.

In turn, `C/C(=C\c1csc(C)n1)[C@@H]1C[C@@H]2O[C@]2(C)CCC[C@H](C)[C@H](O)[C@@H](C)C(=O)C(C)(C)[C@@H](O)CC(=O)O1` [PATUPILONE] displayed an EC50 in the experiment filed under Sus scrofa [2] of 670 nM. This molecule had a Tubulin polymerization in the experiment listed under Sus scrofa [1] of 90%. The half-maximal inhibitory concentration (IC50) with KB is 0.18 nM; with KB 3-1, 0.19 nM.

In turn, `C/C1=C/C[C@@H](c2ccc3c(c2)nc(C)n3C)OC(=O)C[C@H](O)C(C)(C)C(=O)[C@H](C)[C@@H](O)[C@@H](C)CCC1` returned a Tubulin polymerization in the experiment filed under Sus scrofa [1] of 94%. The IC50 with KB turned out to be 0.73 nM; in the experiment with KB 3-1 it was 0.21 nM.

For the molecule `Cc1nc2cc([C@@H]3C[C@@H]4O[C@]4(C)CCC[C@H](C)[C@H](O)[C@@H](C)C(=O)C(C)(C)[C@@H](O)CC(=O)O3)ccc2s1`, in the experiment listed under Sus scrofa [1], the Tubulin polymerization is 83%. Besides, the figures for the IC50 with KB and with KB 3-1 were 0.09 nM and 0.13 nM, respectively.

As to `CC(=O)O[C@H]1C(=O)[C@@]2(C)[C@H]([C@H](OC(=O)c3ccccc3)[C@]3(O)C[C@H](OC(=O)[C@H](O)[C@@H](NC(=O)c4ccccc4)c4ccccc4)C(C)=C1C3(C)C)[C@]1(OC(C)=O)CO[C@@H]1C[C@@H]2O` [PACLITAXEL], in the experiment listed under Sus scrofa [1], the Tubulin polymerization amounted to 49%. For the same molecule, the IC50 with KB worked out at 626 nM; with KB 3-1, 2.92 nM.

In the experiment listed under Sus scrofa [1], `C/C1=C/C[C@@H](c2ccc3c(c2)ncn3C)OC(=O)C[C@H](O)C(C)(C)C(=O)[C@H](C)[C@@H](O)[C@@H](C)CCC1` displayed a Tubulin polymerization of 86%. Moreover, the IC50 in the experiment on KB is 0.91 nM; in the experiment with KB 3-1 it was 0.46 nM.
